Key:
Botrytis cinerea [1] = assay: Eggplant grey mold; type: in vivo; design: scale not given here; conditions: inoculated 24 h later, rated after 3-4 days; for Disease Control Rating at 20 ppm: eggplant sprayed with 20 ppm; for Disease Control Rating at 100 ppm: eggplant sprayed with 100 ppm; for Disease Control Rating at 500 ppm: eggplant sprayed with 500 ppm
Outline: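 Protective test: compound formulations (2:3 acetone:water, 0.5% Tween 20; 500, 100 or 20 ppm) sprayed on 14-18-day-old plants, with spore inoculum (4×10^6 spore/mL) applied a day later. Disease control rated on Botrytis lesions after 3-4 days at 23 °C and 100% humidity.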

Botrytis cinerea [2] = assay: Vine grey mold (grape berries); type: in vivo; conditions: average of six berries, 7-10 days; for pest or weed control at 50 ppm: grape berries treated with 50 ppm, read-out: % DISEASE CONTROL 50 ppm; for pest or weed control at 200 ppm: grape berries treated with 200 ppm, read-out: % DISEASE CONTROL 200 ppm
Outline: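 Preventive berry test: compound at 50 or 200 ppm (acetone/water, 0.05% Tween 20) applied one day before inoculation with 10^6 spores/mL Botrytis conidia. After 7-10 days at 20 °C under 12 h light, infected surface area rated; disease control expressed as percent reduction from control mean; repeated-test values averaged.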

Rhizoctonia solani = assay: Rice sheath blight; type: in vivo; design: scale not given here; conditions: inoculated two days later, rated after 7 days, average of five plants; for Disease Control Rating at 0.02 mg/mL: foliage and soil sprayed with 0.02 mg/mL; for Disease Control Rating at 0.1 mg/mL: foliage and soil sprayed with 0.1 mg/mL; for Disease Control Rating at 0.5 mg/mL: foliage and soil sprayed with 0.5 mg/mL
Outline: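 Rice plants 11–15 days old had foliage and soil sprayed with 0.5, 0.1 or 0.02 mg/mL Compound A in water/acetone/Tween 20, then kept in flooded trays. Two days later, rice-grain Rhizoctonia solani inoculum went to plant bases; disease control scored versus untreated after 7 days at 25 °C, high humidity, averaging five plants.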

succinate dehydrogenase = biological target: T1, succinate dehydrogenase (Botrytis cinerea, UniProt A0A384J5E4+A0A384J8V8+A0A384JHJ5); assay: Enzyme inhibition: succinate dehydrogenase activity in Botrytis cinerea mitochondria (DCPIP reduction); type: biochemical; conditions: concentration required to inhibit the rate of DCPIP reduction by 50%; Botrytis cinerea isolate Nick mitochondria; read-out: I50 (μM conc.)
T1 construct: succinate-DCPIP reductase assay with KCN
T1 sequence (A0A384J5E4 1-300): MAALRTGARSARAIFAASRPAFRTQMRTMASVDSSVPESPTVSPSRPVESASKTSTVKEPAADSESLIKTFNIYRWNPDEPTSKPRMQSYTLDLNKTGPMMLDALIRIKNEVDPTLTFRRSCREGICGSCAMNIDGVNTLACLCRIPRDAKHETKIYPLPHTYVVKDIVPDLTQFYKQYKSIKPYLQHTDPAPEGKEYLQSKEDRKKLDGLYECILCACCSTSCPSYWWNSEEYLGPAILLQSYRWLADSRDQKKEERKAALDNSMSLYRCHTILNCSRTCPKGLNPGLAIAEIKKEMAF
T1 sequence (A0A384J8V8 1-189): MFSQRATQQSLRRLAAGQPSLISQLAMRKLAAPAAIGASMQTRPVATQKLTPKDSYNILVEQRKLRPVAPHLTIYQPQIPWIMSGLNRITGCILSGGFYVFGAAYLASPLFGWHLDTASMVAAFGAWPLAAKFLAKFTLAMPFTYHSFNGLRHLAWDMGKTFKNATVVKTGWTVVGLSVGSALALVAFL
T1 sequence (A0A384JHJ5 1-192): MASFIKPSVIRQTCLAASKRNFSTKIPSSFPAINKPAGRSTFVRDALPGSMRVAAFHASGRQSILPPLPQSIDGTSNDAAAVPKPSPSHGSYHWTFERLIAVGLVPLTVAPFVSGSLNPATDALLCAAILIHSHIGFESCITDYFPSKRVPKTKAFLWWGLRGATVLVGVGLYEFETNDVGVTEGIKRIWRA
T1 sequence (A0A384K456 1-647 partner): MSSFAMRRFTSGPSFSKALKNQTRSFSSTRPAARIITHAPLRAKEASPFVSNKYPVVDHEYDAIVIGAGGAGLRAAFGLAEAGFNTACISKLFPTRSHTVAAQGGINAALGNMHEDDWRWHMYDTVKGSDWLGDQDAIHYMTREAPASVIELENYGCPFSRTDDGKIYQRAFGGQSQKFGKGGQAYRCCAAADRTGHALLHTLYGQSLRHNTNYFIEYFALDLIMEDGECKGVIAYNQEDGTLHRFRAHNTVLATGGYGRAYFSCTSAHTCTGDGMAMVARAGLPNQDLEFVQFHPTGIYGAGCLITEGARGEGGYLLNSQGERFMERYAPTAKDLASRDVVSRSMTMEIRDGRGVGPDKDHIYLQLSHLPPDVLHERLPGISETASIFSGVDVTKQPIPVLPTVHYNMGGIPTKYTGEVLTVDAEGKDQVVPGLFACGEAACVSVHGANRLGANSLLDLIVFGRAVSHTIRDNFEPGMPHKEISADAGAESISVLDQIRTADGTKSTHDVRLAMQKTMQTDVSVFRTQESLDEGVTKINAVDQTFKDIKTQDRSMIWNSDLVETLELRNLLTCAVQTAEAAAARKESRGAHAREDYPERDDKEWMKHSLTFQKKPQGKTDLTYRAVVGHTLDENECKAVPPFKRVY
Outline: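 Crude mitochondria from Botrytis cinerea isolate Nick mycelia, prepared by bead-beating and differential centrifugation, started reactions. SDH activity followed as DCPIP reduction at 600 nm in 50 mM K-phosphate pH 7.2 with 1 mM KCN, 45 μM DCPIP, 17 mM succinate, 1% acetone. I50 from semilog inhibition plots, corrected for succinate-free rates.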

| SMILES | Disease Control Rating at 20 ppm (Botrytis cinerea [1]) | Disease Control Rating at 100 ppm (Botrytis cinerea [1]) | Disease Control Rating at 500 ppm (Botrytis cinerea [1]) | pest or weed control at 50 ppm (Botrytis cinerea [2]) [%] | pest or weed control at 200 ppm (Botrytis cinerea [2]) [%] | Disease Control Rating at 0.02 mg/mL (Rhizoctonia solani) | Disease Control Rating at 0.1 mg/mL (Rhizoctonia solani) | Disease Control Rating at 0.5 mg/mL (Rhizoctonia solani) | IC50 (succinate dehydrogenase) [µM] |
| --- | --- | --- | --- | --- | --- | --- | --- | --- | --- |
| Cc1cccc(NC(=O)c2cn(C)nc2C(F)F)c1C1CCCCC1 [Example 20, 1H-pyrazole-4-carboxamide, N-(2-cyclohexyl-3-methylphenyl)-3-(difluoromethyl)-1-methyl-] | 1 | 2 | 3 | 78 | 81 | 2 | 3 | 3 | 0.014 |
| Cc1nn(C)c(Cl)c1C(=O)Nc1ccccc1C1CCCCCC1 [Example 107, 1H-pyrazole-4-carboxamide, 5-chloro-N-(2-cycloheptylphenyl)-1,3-dimethyl-] | – | – | 0 | 27 | 49 | 1 | 3 | 3 | 0.055 |
| Cn1cc(C(=O)Nc2cccc(F)c2C2CCCCC2)c(C(F)F)n1 [Example 17, 1H-pyrazole-4-carboxamide, N-(2-cyclohexyl-3-fluorophenyl)-3-(difluoromethyl)-1-methyl-] | 1 | 2 | 2 | 90 | 95 | – | – | 3 | 0.0063 |
| Cn1cc(C(=O)Nc2ccccc2SC2CCCCC2)c(C(F)(F)F)n1 [Example 45, 1H-pyrazole-4-carboxamide, N-[2-(cyclohexylthio)phenyl]-1-methyl-3-(trifluoromethyl)-] | – | – | 0 | 7 | 12 | – | – | 0 | 0.092 |
| Cn1cc(C(=O)Nc2ccccc2C=C2CCCCCC2)c(C(F)F)n1 [Example 147, 1H-pyrazole-4-carboxamide, N-[2-(cycloheptylidenemethyl)phenyl]-1-methyl-3-(difluoromethyl)-] | 0 | 0 | 0 | 0 | 0 | – | – | 2 | 0.02 |
| Cn1cc(C(=O)Nc2cc(Cl)ccc2C2CCCCC2)c(C(F)F)n1 [Example 93, 1H-pyrazole-4-carboxamide, N-(5-chloro-2-cyclohexylphenyl)-3-(difluoromethyl)-1-methyl-] | 0 | 0 | 0 | 0 | 15 | – | – | 0 | 0.044 |
| Cn1cc(C(=O)Nc2ccccc2C2=CCCCCC2)c(C(F)(F)F)n1 [Example 112, 1H-pyrazole-4-carboxamide, N-[2-(1-cyclohepten-1-yl)phenyl]-1-methyl-3-(trifluoromethyl)-] | 2 | 3 | 3 | 88 | 95 | – | – | 0 | 0.0021 |
| Cn1cc(C(=O)Nc2ccccc2[C@@H]2C[C@H]3CC[C@@H]2C3)c(Cl)n1 (relative stereo) [Example 52, 1H-pyrazole-4-carboxamide, N-(2-bicyclo[2.2.1]hept-2-ylphenyl)-3-chloro-1-methyl-, exo-] | – | – | 0 | 19 | 30 | 0 | 2 | 2 | 0.049 |
| Cn1cc(C(=O)Nc2ccccc2C2CCCC2)c(I)n1 [Example 69, 1H-pyrazole-4-carboxamide, N-(2-cyclopentylphenyl)-3-iodo-1-methy1-] | – | – | 0 | 30 | 70 | 0 | 2 | 3 | 0.033 |
| Cc1nn(C)cc1C(=O)Nc1ccccc1C1CCCCCC1 [Example 13, 1H-pyrazole-4-carboxamide, N-(2-cycloheptylphenyl)-1,3-dimethyl-] | 1 | 1 | 3 | 63 | 66 | 2 | 3 | 3 | 0.011 |
| Cn1cc(C(=O)Nc2ccccc2C2CCCCCC2)c(OC(F)F)n1 [Example 60] | – | – | 0 | 0 | 0 | – | – | 0 | 0.35 |
| Cn1cc(C(=O)Nc2ccccc2O[C@H]2C[C@H]3CC[C@@H]2C3)c(C(F)F)n1 (relative stereo) [Example 82, 1H-pyrazole-4-carboxamide, N-[2-(bicyclo[2.2.1]hept-2-yloxy)-phenyl]-3-(difluoromethyl)-1-methyl-, endo-] | – | – | 0 | 0 | 0 | 3 | 3 | 3 | 0.065 |
| C[C@@H]1CCC[C@@H](C)C1Oc1ccccc1NC(=O)c1cn(C)nc1C(F)(F)F (relative stereo) [Example 75, 1H-pyrazole-4-carboxamide, 1-methyl-N-[2-[(2,6-dimethylcyclohexyl)oxy]phenyl]-3-(trifluoromethyl)-, (1alpha,2alpha,6beta)-] | – | – | 0 | 6 | 0 | – | – | 0 | 0.013 |
| Cn1cc(C(=O)Nc2ccccc2CC2CCCCCC2)c(C(F)(F)F)n1 [Example 146, 1H-pyrazole-4-carboxamide, 1-methyl-N-[2-(cycloheptylmethyl)-phenyl]-3-(trifluoromethyl)-] | 0 | 0 | 1 | 0 | 0 | – | – | 1 | 0.053 |
| Cn1cc(C(=O)Nc2ccccc2C=C2CCCC2)c(C(F)F)n1 [Example 118, 1H-pyrazole-4-carboxamide, N-[2-(cyclopentylidenemethyl)phenyl]3-(difluoromethyl)-1-methyl-] | – | – | 0 | 37 | 87 | – | – | 1 | 0.029 |
| Cn1cc(C(=O)Nc2ccccc2OCC2CCCC2)c(C(F)F)n1 [Example 46, 1H-pyrazole-4-carboxamide, N-[2-(cyclopentylmethoxy)phenyl]-3-(difluoromethyl)-1-methyl-] | – | – | 0 | 1 | 0 | 2 | 3 | 3 | 0.096 |
| Cn1nc(C(F)F)c(C(=O)Nc2ccccc2C2CCCCCC2)c1F [Example 115, 1H-pyrazole-4-carboxamide, N-(2-cycloheptylphenyl)-3-(difluoromethyl)-5-fluoro-1-methyl-] | 1 | 2 | 3 | 42 | 95 | 3 | 3 | 3 | 0.0065 |
| CC(=C1CCCC1)c1ccccc1NC(=O)c1cn(C)nc1C(F)(F)F [Example 33, 1H-pyrazole-4-carboxamide, N-[2-(1-cyclopentylideneethyl)phenyl]-1-methyl-3-(trifluoromethyl)-] | 1 | 1 | 2 | 34 | 41 | 1 | 1 | 3 | 0.0014 |

Reference: patent US5223526A, “Pyrazole carboxanilide fungicides and use” (Monsanto Company, priority 1992, dated 1993)
